For one assay, the system named is peanut-sensitized mice. Put plainly: Peanut allergy mouse model: clinical score and diarrhoea after oral peanut extract challenge. The assay is classed as in vivo. As to conditions: for clinical score / incidence of diarrhoea: FOS-enriched diet; for clinical score: average of days 1-3 of oral PE challenge; for incidence of diarrhoea: oral PE challenge.
In the next assay the test system is peanut-specific IgE. The assay can be described thus: Peanut-specific IgE ELISA on serum from the peanut allergy model. The settings on record: FOS-enriched diet, serum after last PE challenge. The assay is classed as in vivo, mouse. Here is the method:
On days 1, 7, and 21 mice were sensitized with 500 μg of peanut extract (PE) together with 2 mg of Imject alum (Thermo Fisher, France) by intraperitoneal (IP) injection (100 μl in PBS). Starting from day 35, for 7 days, mice were challenged with 30 mg of PE in NaHCO3 (0.1M) by oral gavage, and clinical score (Table 2) and occurrence of diarrhoea was registered for 1 hours after each gavage. After the last challenge, blood is collected for serum extraction. Non-allergic control animals were sham sensitized (2 mg alum but no peanut extract) but challenged like the other experimental groups. Peanut Extract (PE) was coated on ELISA plates at 5 μg/ml in 0.05 M sodium carbonate-bicarbonate buffer (Sigma-Aldrich, France) over-night at 4° C., plates were washed 3 times with PBS-0.05% Tween 20 (Sigma-Aldrich, France). […] Sample preparation: Mouse serum from blood collected 1 hour after the last oral peanut challenge was diluted 1/50 in ELISA assay buffer (1×) from the ELISA kit used. The colorimetric reaction was stopped by addition of H2SO4 (5M) and absorbance was recorded at 450 nm.

Setting [1] is: FPS-ZM1 0.5 or 1 mg/kg b.w. i.p. twice weekly.
The mark [2] stands for this setting: pyridoxamine 1 mg/ml in drinking water throughout.

“Also recorded” adds a separate entry of the source.

Experimental for peanut-sensitized mice: All mice were bred and maintained on a peanut- and soy-free diet under specific pathogen-free conditions until the start of the experiment.
Pyridoxamine: pyridoxamine dihydrochloride (Sigma-Aldrich, France) is added to drinking water at 1 mg/ml throughout the experiment.
RAGE antagonist FPS-ZM1: twice weekly 100 μl IP injections of FPS-ZM1 in PBS (Sigma Aldrich, France) at 0 (control group), 0.5, or 1 mg/kg b.w. were performed throughout the experiment.
Clinical score (Table 2) was continually observed from 15 to 50 minutes after oral allergen challenge and noted for each mouse. For analysis purposes, the average clinical score of the first 3 days of challenge is calculated for each mouse.
Experimental groups were compared by One-Way ANOVA, selected groups were compared using Holm-Sidak's correction for multiple comparisons. For diarrhoea data, pairwise comparisons of survival curves were performed and analysed by Mantel-Cox log-rank test.

For `O=C(c1ccc(Cl)cc1)N(Cc1ccccc1)C1CCCCC1` [FPS-ZM1, 4-Chloro-N-cyclohexyl-N-(phenylmethyl)benzamide], in the assay with peanut-sensitized mice (setting [1]), the “FOS-induced aggravating effects in a mouse model of peanut allergy” value is reported as “eliminates; also recorded: limit”, the clinical score result is “lowering” and the incidence of diarrhoea entry is recorded as “lowering”. Moreover, the “allergen-specific IgE levels” value with peanut-specific IgE (setting [1]) is listed as “lowering”.
In the case of `Cc1ncc(CO)c(CN)c1O` [pyridoxamine], in the assay on peanut-sensitized mice (setting [2]), the “aggravating effects of the FOS-enriched diet on peanut allergic reactions” value is “eliminates; also recorded: block”, the clinical score entry was “reduced” and the incidence of diarrhoea result is “reduced”. In the assay on peanut-specific IgE (setting [2]), the “serum peanut-specific IgE levels” value is given as “reduced”.

(Values after patent US20260240818A1, “METHODS FOR THE TREATMENT OF FOOD ALLERGY” (INSTITUT NATIONAL DE LA SANTÉ ET DE LA RECHERCHE MÉDICALE, priority 2023, published 2026).)
